{"source": "PubChem BioAssay AID2060484", "about": "(Molecular Pharmacology Branch, DTP, NCI, 2025)", "tested_on": "SUM149PT spheroids with HUVEC/MSC, viability", "assay": "Anticancer human tumor SUM149PT cell line growth inhibition [GQUAD];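 as to all read-outs here: spheroids exposed to drugs for seven days before readout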;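 as to viability, T/C: percent viability relative to DMSO vehicle control taken as 100%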", "conditions": "for viability, T/C: stronger effect = lower value; for IC50: curve of first compound", "description": "DNA G-quadruplex Stabilizer Agents in Combinations in Complex Spheroids\nA high-throughput screen of multi-cell type tumor spheroids was designed to identify active combinations of DNA G-quadruplex stabilizer agents and targeted small molecules. Complex spheroids include a stromal component modeled by human endothelial cells (HUVEC) and fibroblasts modeled by human mesenchymal stem cells (MSCs). The concentration ranges selected for each drug and investigational agent were based upon clinically achievable concentrations if the clinical Cmax of the agent was known.\nCompounds. The drugs and investigational agents: pidnarulex (CX-5461; NSC782164), APTO-253 (NSC789042), BRACO-19 (NSC847499), peposertib (NSC802822), ceralasertib (NSC780249), elimusertib (NSC800525), camonsertib (NSC841442), AZD-1390 (NSC803789), olaparib (NSC753686), talazoparib (NSC767125), ART-558 (NSC835418), sotorasib (NSC818433), MRTX-1133 (NSC836407), SN-38 (NSC673596), topotecan (NSC609699), etoposide (NSC141540), doxorubicin (NSC123127), gemcitabine (NSC613327), 5-fluorouracil (NSC19893), paclitaxel (NSC125973), vemurafenib (NSC761431), panobinostat (NSC761190), R-306465 (JNJ-16241199; NSC773264), adavosertib (NSC754352), TP-3654 (NSC805149), carboplatin (NSC241240), KSQ-4279 (NSC840948), and staurosporine (NSC755774) were obtained from the National Cancer Institute (NCI) Developmental Therapeutics Program Chemical Repository (34). The FDA-approved anticancer drug set is available from the NCI Developmental Therapeutics Program. […] The stock solutions were prepared in dimethyl sulfoxide (DMSO, Sigma-Aldrich, St. Louis, MO, cat. D2650) at 800-fold the tested concentration and stored at -70 degrees C prior to their use. All drugs and investigational agents were tested over a range starting from a high concentration at or near the clinical Cmax and decreasing in half-log increments. If the clinical Cmax for an agent had not been determined, the highest concentration tested was 10 microM.\n2.3 Cell Culture. All cells were maintained in an incubator at 37 degrees C and 5% CO2 with 95% humidity. The PDC lines were cultured according to standard operating procedures established by the NCI PDMR. All PDCs were thawed and cultured in Matrigel-coated flasks prepared with a working solution of 1X Ham's F-12 nutrient mix, without supplementation (Invitrogen, cat. 11765054), 100 U/mL penicillin-streptomycin (Invitrogen, cat. 15140122), and 2.5% Matrigel (Corning Inc., cat. 354248) for the first three passages. The 857933-349-R-J2-PDC line was cultured in 6C/Colon 1B media, which includes advanced DMEM/F-12 (Thermo Fisher Scientific, cat. 12634028), 10 mM HEPES (Thermo Fisher Scientific, cat. 15630080), 1X GlutaMAX supplement (Thermo Fisher Scientific, cat. 35050061), 0.1 mg/mL primocin (InvivoGen, cat. ant-pm-2), 10% defined fetal bovine serum, heat inactivated (HyClone Laboratories Inc., cat. SH30070.03HI), 50% L-WRN conditioned media (ATCC, cat. CRL-3276), 1.25 mM N-Acetyl-L-cysteine (Sigma-Aldrich, cat. A9165), 10 mM nicotinamide (Sigma-Aldrich, cat. N0636), 1X B-27 supplement (Thermo Fisher Scientific, cat. 17504044), 1X N-2 supplement (Thermo Fisher Scientific, cat. 17502048), 10 microM Y-27632 dihydrochloride (Tocris Bioscience, cat. 1254), and 50 ng/mL human EGF recombinant protein (Thermo Fisher Scientific, cat. PHG0311). The 485176-168-R4-J1-PDC line was cultured in Panc media, which includes all 6C/Colon 1B media components plus 100 ng/mL human FGF-10 (Thermo Fisher Scientific, cat. 100-26), 500 nM SB-431542 (Selleckchem, cat. S1067), and gastrin (Tocris, cat. 3006).\n[…]", "note": "Where “and” joins values, the source holds several entries; their conditions need not be identical. Equal entries are not always repeated.", "data": [{"smiles": "CCc1c2c(nc3ccc(O)cc13)-c1cc3c(c(=O)n1C2)COC(=O)[C@]3(O)CC", "values": [{"measurement": "viability, T/C", "setting": "compound 0.000999 µM", "result": "65.9% and 72.5% and 67.1%"}, {"measurement": "viability, T/C", "setting": "compound 0.00316 µM", "result": "36% and 43.4% and 27.6%"}, {"measurement": "viability, T/C", "setting": "compound 0.00999 µM", "result": "44% and 61.2% and 38.6%"}, {"measurement": "viability, T/C", "setting": "compound 0.0316 µM", "result": "36% and 47.2% and 30.2%"}, {"measurement": "viability, T/C", "setting": "compound 0.0999 µM", "result": "27% and 38.1% and 23.1%"}, {"measurement": "viability, T/C", "setting": "compound 0.316 µM", "result": "16.4% and 21.9% and 12.8%"}]}, {"smiles": "COc1cc(C2c3cc4c(cc3C(OC3OC5COC(C)OC5C(O)C3O)C3COC(=O)C23)OCO4)cc(OC)c1O", "note": "(centres undefined) + Cc1[nH]c2ccc(F)cc2c1-c1nc2c3cccnc3c3ncccc3c2[nH]1", "values": [{"measurement": "IC50", "setting": "second compound 0.0316 µM", "result": 875, "unit": "nM"}, {"measurement": "IC50", "setting": "second compound 0.1 µM", "result": 554, "unit": "nM"}, {"measurement": "IC50", "setting": "second compound 0.316 µM", "result": 784, "unit": "nM"}, {"measurement": "IC50", "setting": "second compound 1 µM", "result": 830, "unit": "nM"}, {"measurement": "IC50", "setting": "second compound 3.16 µM", "result": 807, "unit": "nM"}, {"measurement": "IC50", "setting": "second compound 10 µM", "result": 607, "unit": "nM"}, {"measurement": "viability, T/C", "setting": "second compound 0.0316 µM, first compound 0.0316 µM", "result": 102, "unit": "%"}, {"measurement": "viability, T/C", "setting": "second compound 0.0316 µM, first compound 0.1 µM", "result": 86.1, "unit": "%"}, {"measurement": "viability, T/C", "setting": "second compound 0.0316 µM, first compound 0.316 µM", "result": 56.3, "unit": "%"}, {"measurement": "viability, T/C", "setting": "second compound 0.0316 µM, first compound 1 µM", "result": 49.9, "unit": "%"}, {"measurement": "viability, T/C", "setting": "second compound 0.0316 µM, first compound 3.16 µM", "result": 38.5, "unit": "%"}, {"measurement": "viability, T/C", "setting": "second compound 0.0316 µM, first compound 10 µM", "result": 18.4, "unit": "%"}, {"measurement": "viability, T/C", "setting": "second compound 0.1 µM, first compound 0.0316 µM", "result": 105, "unit": "%"}, {"measurement": "viability, T/C", "setting": "second compound 0.1 µM, first compound 0.1 µM", "result": 77.7, "unit": "%"}, {"measurement": "viability, T/C", "setting": "second compound 0.1 µM, first compound 0.316 µM", "result": 50.7, "unit": "%"}, {"measurement": "viability, T/C", "setting": "second compound 0.1 µM, first compound 1 µM", "result": 47.1, "unit": "%"}, {"measurement": "viability, T/C", "setting": "second compound 0.1 µM, first compound 3.16 µM", "result": 36.8, "unit": "%"}, {"measurement": "viability, T/C", "setting": "second compound 0.1 µM, first compound 10 µM", "result": 18.5, "unit": "%"}, {"measurement": "viability, T/C", "setting": "second compound 0.316 µM, first compound 0.0316 µM", "result": 93.2, "unit": "%"}, {"measurement": "viability, T/C", "setting": "second compound 0.316 µM, first compound 0.1 µM", "result": 82.3, "unit": "%"}, {"measurement": "viability, T/C", "setting": "second compound 0.316 µM, first compound 0.316 µM", "result": 54.4, "unit": "%"}, {"measurement": "viability, T/C", "setting": "second compound 0.316 µM, first compound 1 µM", "result": 46.9, "unit": "%"}, {"measurement": "viability, T/C", "setting": "second compound 0.316 µM, first compound 3.16 µM", "result": 38.2, "unit": "%"}, {"measurement": "viability, T/C", "setting": "second compound 0.316 µM, first compound 10 µM", "result": 15.4, "unit": "%"}, {"measurement": "viability, T/C", "setting": "second compound 1 µM, first compound 0.0316 µM", "result": 97.6, "unit": "%"}, {"measurement": "viability, T/C", "setting": "second compound 1 µM, first compound 0.1 µM", "result": 84.4, "unit": "%"}, {"measurement": "viability, T/C", "setting": "second compound 1 µM, first compound 0.316 µM", "result": 51.3, "unit": "%"}, {"measurement": "viability, T/C", "setting": "second compound 1 µM, first compound 1 µM", "result": 54, "unit": "%"}, {"measurement": "viability, T/C", "setting": "second compound 1 µM, first compound 3.16 µM", "result": 36.5, "unit": "%"}, {"measurement": "viability, T/C", "setting": "second compound 1 µM, first compound 10 µM", "result": 13.5, "unit": "%"}, {"measurement": "viability, T/C", "setting": "second compound 3.16 µM, first compound 0.0316 µM", "result": 88.2, "unit": "%"}, {"measurement": "viability, T/C", "setting": "second compound 3.16 µM, first compound 0.1 µM", "result": 77.3, "unit": "%"}, {"measurement": "viability, T/C", "setting": "second compound 3.16 µM, first compound 0.316 µM", "result": 58.2, "unit": "%"}, {"measurement": "viability, T/C", "setting": "second compound 3.16 µM, first compound 1 µM", "result": 49.3, "unit": "%"}, {"measurement": "viability, T/C", "setting": "second compound 3.16 µM, first compound 3.16 µM", "result": 33.3, "unit": "%"}, {"measurement": "viability, T/C", "setting": "second compound 3.16 µM, first compound 10 µM", "result": 12.9, "unit": "%"}, {"measurement": "viability, T/C", "setting": "second compound 10 µM, first compound 0.0316 µM", "result": 81.9, "unit": "%"}, {"measurement": "viability, T/C", "setting": "second compound 10 µM, first compound 0.1 µM", "result": 74.7, "unit": "%"}, {"measurement": "viability, T/C", "setting": "second compound 10 µM, first compound 0.316 µM", "result": 48.2, "unit": "%"}, {"measurement": "viability, T/C", "setting": "second compound 10 µM, first compound 1 µM", "result": 49.4, "unit": "%"}, {"measurement": "viability, T/C", "setting": "second compound 10 µM, first compound 3.16 µM", "result": 33.5, "unit": "%"}, {"measurement": "viability, T/C", "setting": "second compound 10 µM, first compound 10 µM", "result": 14.3, "unit": "%"}]}, {"smiles": "C#Cc1c(F)ccc2cc(O)cc(-c3ncc4c(N5CC6CCC(C5)N6)nc(OCC56CCCN5CC(F)C6)nc4c3F)c12", "note": "(centres undefined)", "values": [{"measurement": "viability, T/C", "setting": "compound 0.0316 µM", "result": "92.8% and 104% and 99.7%"}, {"measurement": "viability, T/C", "setting": "compound 0.1 µM", "result": "74.4% and 90.1% and 92.7%"}, {"measurement": "viability, T/C", "setting": "compound 0.316 µM", "result": "58.9% and 82.1% and 77.1%"}, {"measurement": "viability, T/C", "setting": "compound 1 µM", "result": "40.6% and 62.5% and 67.6%"}, {"measurement": "viability, T/C", "setting": "compound 3.16 µM", "result": "37.8% and 70.5% and 53.1%"}, {"measurement": "viability, T/C", "setting": "compound 10 µM", "result": "30.2% and 42.8% and 41.5%"}]}]}
